From BindingDB's records for doi:10.1021/cb700200w (Novartis, 2008)

Legend:
[1] = target: Cyclin-dependent kinase/G2/mitotic-specific cyclin- 1 (Homo sapiens, UniProt P06493); assay: Z-LYTE Enzymatic Kinase Assay
Protocol: Enzyme activity was assayed using Z-LYTE Enzymatic Kinase Assay format (Invitrogen Corp., Carlsbad, CA) in the SelectScreen Kinase Profiling Service (Invitrogen Discovery Sciences, Madison, WI).

[2] = target: T1, Aurora kinase A (Homo sapiens, UniProt O14965); assay: Aurora Kinase SPA Assay
T1 sequence (O14965 whole entry): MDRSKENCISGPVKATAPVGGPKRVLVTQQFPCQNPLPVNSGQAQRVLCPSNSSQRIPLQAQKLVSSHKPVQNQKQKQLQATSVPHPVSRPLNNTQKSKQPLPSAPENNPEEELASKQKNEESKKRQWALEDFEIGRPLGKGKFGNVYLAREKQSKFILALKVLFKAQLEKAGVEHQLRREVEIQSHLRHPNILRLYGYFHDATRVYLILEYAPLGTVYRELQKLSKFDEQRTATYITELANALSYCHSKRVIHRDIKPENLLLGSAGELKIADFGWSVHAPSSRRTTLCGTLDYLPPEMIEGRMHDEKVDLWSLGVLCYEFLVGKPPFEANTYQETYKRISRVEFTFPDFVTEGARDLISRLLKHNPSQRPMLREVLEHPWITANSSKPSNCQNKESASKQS
Protocol: The biochemical activity of compounds was determined by incubation with Aurora A and substrates in the presence ATP/[gamma-33P] ATP. After incubation, the reaction was stopped and the phosphorylated substrate was separated from nonincorporated radioactive ATP using SPA beads (Amersham Pharmacia Biotech), counted using TopCount (Packard) to measure substrate-incorporated phosphate.

Cyclin-dependent kinase/G2/mitotic-specific cyclin- 1, sequence (P06493 whole entry): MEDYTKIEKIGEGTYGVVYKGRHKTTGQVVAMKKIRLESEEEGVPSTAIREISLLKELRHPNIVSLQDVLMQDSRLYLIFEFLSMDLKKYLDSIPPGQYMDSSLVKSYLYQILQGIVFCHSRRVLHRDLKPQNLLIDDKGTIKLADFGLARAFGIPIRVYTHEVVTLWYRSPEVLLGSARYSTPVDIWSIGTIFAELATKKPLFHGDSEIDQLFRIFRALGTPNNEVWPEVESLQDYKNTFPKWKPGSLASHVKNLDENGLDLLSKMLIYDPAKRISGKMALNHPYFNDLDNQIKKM
Cyclin-dependent kinase/G2/mitotic-specific cyclin- 1, sequence (P14635 whole entry, further chain): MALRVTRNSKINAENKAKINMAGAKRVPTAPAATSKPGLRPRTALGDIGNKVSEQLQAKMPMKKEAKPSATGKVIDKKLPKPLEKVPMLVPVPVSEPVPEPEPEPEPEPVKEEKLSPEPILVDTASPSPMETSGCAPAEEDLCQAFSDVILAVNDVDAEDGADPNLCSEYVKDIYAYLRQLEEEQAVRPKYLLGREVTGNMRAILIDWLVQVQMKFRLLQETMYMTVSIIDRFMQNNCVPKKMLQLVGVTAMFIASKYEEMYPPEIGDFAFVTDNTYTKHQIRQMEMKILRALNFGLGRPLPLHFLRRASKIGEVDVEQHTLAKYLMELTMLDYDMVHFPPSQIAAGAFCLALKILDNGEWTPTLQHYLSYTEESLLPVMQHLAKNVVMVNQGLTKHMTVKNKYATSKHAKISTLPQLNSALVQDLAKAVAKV

Structure (SMILES)	IC50 ([2]; pH 7, 22 °C) [µM]	IC50 [2] [µM]	other results
CNC(=O)c1ccc(Nc2ncc(Br)s2)cc1 [4-[(5-bromo-1,3-thiazol-2-yl)amino]-N-methylbenzamide]			IC50 [1]: 4.27 µM
O=C(O)c1ccc(Nc2ncc(Br)s2)cc1 [4-[(5-bromo-1,3-thiazol-2-yl)amino]benzoic acid]	0.079		IC50 [1]: > 10 µM
Fc1ccc(Nc2ncc(Br)s2)c(F)c1 [5-bromo-N-(2,4-difluorophenyl)-1,3-thiazol-2-amine]		> 10	
Fc1ccc(F)c(Nc2ncc(Br)s2)c1 [5-bromo-N-(2,5-difluorophenyl)-1,3-thiazol-2-amine]		> 10	
Fc1ccccc1Nc1ncc(Br)s1 [5-bromo-N-(2-fluorophenyl)-1,3-thiazol-2-amine]		5.5	
COc1ccccc1Nc1ncc(Br)s1 [5-bromo-N-(2-methoxyphenyl)-1,3-thiazol-2-amine]		2.7	
Cc1ccccc1Nc1ncc(Br)s1 [5-bromo-N-(2-methylphenyl)-1,3-thiazol-2-amine]		3	
Brc1cnc(NCCc2ccccc2)s1 [5-bromo-N-(2-phenylethyl)-1,3-thiazol-2-amine]		> 10	
Clc1ccc(Nc2ncc(Br)s2)cc1Cl [5-bromo-N-(3,4-dichlorophenyl)-1,3-thiazol-2-amine]		> 10	
Clc1cc(Cl)cc(Nc2ncc(Br)s2)c1 [5-bromo-N-(3,5-dichlorophenyl)-1,3-thiazol-2-amine]		> 10	
Cc1cc(C)cc(Nc2ncc(Br)s2)c1 [5-bromo-N-(3,5-dimethylphenyl)-1,3-thiazol-2-amine]		> 10	
Fc1cccc(Nc2ncc(Br)s2)c1 [5-bromo-N-(3-fluorophenyl)-1,3-thiazol-2-amine]		9.3	
COc1cccc(Nc2ncc(Br)s2)c1 [5-bromo-N-(3-methoxyphenyl)-1,3-thiazol-2-amine]		0.9	
Cc1cccc(Nc2ncc(Br)s2)c1 [5-bromo-N-(3-methylphenyl)-1,3-thiazol-2-amine]		1.1	
Brc1ccc(Nc2ncc(Br)s2)cc1 [5-bromo-N-(4-bromophenyl)-1,3-thiazol-2-amine]	2.9		
Clc1ccc(Nc2ncc(Br)s2)cc1 [5-bromo-N-(4-chlorophenyl)-1,3-thiazol-2-amine]	3		
Fc1ccc(Nc2ncc(Br)s2)cc1 [5-bromo-N-(4-fluorophenyl)-1,3-thiazol-2-amine]	0.4		IC50 [1]: > 10 µM
CN(c1ccc(F)cc1)c1ncc(Br)s1 [5-bromo-N-(4-fluorophenyl)-N-methyl-1,3-thiazol-2-amine]	> 10		
Brc1cnc(Nc2ccc(I)cc2)s1 [5-bromo-N-(4-iodophenyl)-1,3-thiazol-2-amine]	> 10		
COc1ccc(Nc2ncc(Br)s2)cc1 [5-bromo-N-(4-methoxyphenyl)-1,3-thiazol-2-amine]	1.7		
Cc1ccc(Nc2ncc(Br)s2)cc1 [5-bromo-N-(4-methylphenyl)-1,3-thiazol-2-amine]	2.84		
O=[N+]([O-])c1ccc(Nc2ncc(Br)s2)cc1 [5-bromo-N-(4-nitrophenyl)-1,3-thiazol-2-amine]	13		
Brc1cnc(Nc2ccc(Oc3ccccc3)cc2)s1 [5-bromo-N-(4-phenoxyphenyl)-1,3-thiazol-2-amine]	1.4		
Brc1cnc(Nc2cccc3ccccc23)s1 [5-bromo-N-(naphthalen-1-yl)-1,3-thiazol-2-amine]		5	
Brc1cnc(Nc2ccccn2)s1 [5-bromo-N-(pyridin-2-yl)-1,3-thiazol-2-amine]		2	
Brc1cnc(Nc2cccnc2)s1 [5-bromo-N-(pyridin-3-yl)-1,3-thiazol-2-amine]		3.6	
Brc1cnc(Nc2ccncc2)s1 [5-bromo-N-(pyridin-4-yl)-1,3-thiazol-2-amine]		7.8	
FC(F)(F)c1ccccc1Nc1ncc(Br)s1 [5-bromo-N-[2-(trifluoromethyl)phenyl]-1,3-thiazol-2-amine]		> 10	

The next lines start with results.

IC50 ([2]; pH 7, 22 °C) [µM]	IC50 [2] [µM]	Structure (SMILES)	other results
	0.5	CSc1cccc(Nc2ncc(Br)s2)c1 [5-bromo-N-[3-(methylsulfanyl)phenyl]-1,3-thiazol-2-amine]	
	10	FC(F)(F)c1cccc(Nc2ncc(Br)s2)c1 [5-bromo-N-[3-(trifluoromethyl)phenyl]-1,3-thiazol-2-amine]	
0.9		Brc1cnc(Nc2ccc(Oc3ccncc3)cc2)s1 [5-bromo-N-[4-(pyridin-4-yloxy)phenyl]-1,3-thiazol-2-amine]	
17.2		FC(F)(F)Oc1ccc(Nc2ncc(Br)s2)cc1 [5-bromo-N-[4-(trifluoromethoxy)phenyl]-1,3-thiazol-2-amine]	
2.4		FC(F)(F)c1ccc(Nc2ncc(Br)s2)cc1 [5-bromo-N-[4-(trifluoromethyl)phenyl]-1,3-thiazol-2-amine]	
1.1		Brc1cnc(Nc2ccccc2)s1 [5-bromo-N-phenyl-1,3-thiazol-2-amine]	
1.1		Fc1ccc(Nc2ncc(Cl)s2)cc1 [5-chloro-N-(4-fluorophenyl)-1,3-thiazol-2-amine]	
	2.5	N#Cc1cnc(Nc2ccccn2)s1 [ACS Chemical Biology 3180 Compound 63]	
> 10		Fc1ccc(Nc2nccs2)cc1 [N-(4-fluorophenyl)-1,3-thiazol-2-amine]	
0.5		Fc1ccc(Nc2ncc(I)s2)cc1 [N-(4-fluorophenyl)-5-iodo-1,3-thiazol-2-amine]	
	> 10	CC(=O)Nc1ncc(Br)s1 [N-(5-bromo-1,3-thiazol-2-yl)acetamide]	
	5.5	O=C(Nc1ncc(Br)s1)c1ccccc1 [N-(5-bromo-1,3-thiazol-2-yl)benzamide]	
	> 10	FC(F)(F)c1cc(Nc2ncc(Br)s2)cc(C(F)(F)F)c1 [N-[3,5-bis(trifluoromethyl)phenyl]-5-bromo-1,3-thiazol-2-amine]	
0.36		CC(=O)Nc1ccc(Nc2ncc(Br)s2)cc1 [N-{4-[(5-bromo-1,3-thiazol-2-yl)amino]phenyl}acetamide]	
9.2		O=C(Nc1ccc(Nc2ncc(Br)s2)cc1)c1ccccc1 [N-{4-[(5-bromo-1,3-thiazol-2-yl)amino]phenyl}benzamide]	
	2.25	CCOC(=O)c1cccc(Nc2ncc(Br)s2)c1 [ethyl 3-[(5-bromo-1,3-thiazol-2-yl)amino]benzoate]	
5.7		CCOC(=O)c1ccc(Nc2ncc(Br)s2)cc1 [ethyl 4-[(5-bromo-1,3-thiazol-2-yl)amino]benzoate]	
